Laboratory results taken from patent US20120142771A1, “BIPHENYLACETAMIDE DERIVATIVE” (Dainippon Sumitomo Pharma Co., Ltd., priority 2008, published 2012).
Where two headings read alike, the source gives them in different places.

Experiments:
Type in all cases: in vivo, mice
[1] = system: maximum electroshock seizure (MES) model; experiment: Maximum electroshock seizure (MES) model test; conditions: for MES (positive number/tested number) / responders at 100 mg/kg / responders at 50 mg/kg: inhibition of hind limb extension; for responders at 100 mg/kg / responders at 50 mg/kg: Mus musculus, po, 1 h; for anticonvulsant action in maximum electroshock seizure (MES) model test: mice, oral 50 or 100 mg/kg, 1 hour after administration
Procedure, shortened: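 Tonic hind-limb extension was elicited by corneal electroshock (60 Hz, 25 mA, 0.2 s) 1 h after oral dosing. Test compounds were given at 50 or 100 mg/kg to groups of 3 male Slc: ddY mice (20-30 g), vehicle controls receiving 0.5% tragacanth or 0.5% methylcellulose solution.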

[2] = system: subcutaneously pentetrazol-injected model (scPTZ); experiment: Subcutaneously pentetrazol-injected model (scPTZ) test; conditions: pentetrazol 85 mg/kg s.c. after 1 hour; for scPTZ (positive number/tested number) / responders at 50 mg/kg / responders at 100 mg/kg: Slc: ddY male mice, 3 per group, observed 30 minutes for clonic convulsion; for anticonvulsant action in subcutaneously pentetrazol-injected model (scPTZ) test: mice, oral 50 or 100 mg/kg; for responders at 50 mg/kg / responders at 100 mg/kg: Mus musculus, po, 1 h, read-out: scPTZ (positive number/tested number) (converted)
Procedure, shortened: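 Pentetrazol (85 mg/kg, s.c.) was injected one hour after oral test compound at 50 or 100 mg/kg in groups of three male Slc:ddY mice weighing 20-30 g; vehicle controls got 0.5% tragacanth or 0.5% methylcellulose.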

[3] = system: 6 Hz psychomotor seizure model; experiment: 6 Hz psychomotor seizure model; conditions: for ED50: Mus musculus; for 6 Hz (Positive number/tested number): dose 100 mg/kg, 30 minutes or 1 hour after administration
Description: Test 4: Test of 6 Hz Psychomotor Seizure Model
Similar to Tests 1 and 2, Test 4 evaluates the anticonvulsant action of medicaments. However, unlike Tests 1 and 2, the animal model used herein represents clinical phenotypes of seizures resistant to existing antiepileptic drugs. […] After 30 minutes or an hour of administration, their corneas were electrically stimulated (6 Hz, 32 mA, 3 seconds) to induce symptoms of myoclonus in their forelimbs, Straub tail, and immobility. […] To the control mice, 0.5% tragacanth solution, 0.5% methylcellulose solution, or olive oil was administered.

[4] = 50 mg/kg oral, Slc: ddY male mice, 3 per group, electrical stimulation 1 hour after administration
[5] = 100 mg/kg oral, Slc: ddY male mice, 3 per group, electrical stimulation 1 hour after administration
[6] = 50 mg/kg oral, Slc: ddY male mice, 3 per group, electrical stimulation 1 hour after administration, read-out: MES (positive number/tested number) (converted)
[7] = 100 mg/kg oral, Slc: ddY male mice, 3 per group, electrical stimulation 1 hour after administration, read-out: MES (positive number/tested number) (converted)
[8] = 6 Hz psychomotor seizure model, mice, oral, read-out: ED50

| Compound | MES (positive number/tested number) [1, 4] | responders at 100 mg/kg ([1]; read-out: MES (positive number/tested number), 100 mg/kg oral, Slc: ddY male mice, 3 per group, electrical stimulation 1 hour after administration) [%] | anticonvulsant action in maximum electroshock seizure (MES) model test [1] | scPTZ (positive number/tested number) ([2]; 50 mg/kg oral) | scPTZ (positive number/tested number) ([2]; 100 mg/kg oral) | anticonvulsant action in subcutaneously pentetrazol-injected model (scPTZ) test [2] | ED50 ([3]; po) [mg/kg] | 6 Hz (Positive number/tested number) ([3]; mice, oral) | MES (positive number/tested number) [1, 5] | responders at 50 mg/kg [1, 6] [%] | responders at 100 mg/kg [1, 7] [%] | responders at 50 mg/kg ([2]; 50 mg/kg oral) [%] | responders at 100 mg/kg ([2]; 100 mg/kg oral) [%] | ED50 [3, 8] [mg/kg] | efficacy in 6 Hz psychomotor seizure model ([3]; mice, oral administration at a dose of 100 mg/kg) |
| --- | --- | --- | --- | --- | --- | --- | --- | --- | --- | --- | --- | --- | --- | --- | --- |
| NC(=O)C(F)c1ccccc1-c1ccccc1 (single isomer, unassigned) [Example 209, 2-(Biphenyl-2-yl)-2-fluoroacetamide] | 3/3 | 100 | anticonvulsant action was observed | 2/3 | 2/3 | anticonvulsant action was observed | 109 | 6/10/100 | – | – | – | – | – | – | – |
| NC(=O)C(F)c1ccccc1-c1ccccc1 (single isomer, unassigned) [Example 210, 2-(Biphenyl-2-yl)-2-fluoroacetamide] | 2/3 | – | anticonvulsant action was observed | 3/3 | 3/3 | anticonvulsant action was observed | – | 4/5/100 | 3/3 | – | – | – | – | – | – |
| NC(=O)C(O)c1ccccc1-c1cccc(F)c1 (single isomer, unassigned) [Example 211, 2-(3′-Fluorobiphenyl-2-yl)-2-hydroxyacetamide] | – | – | anticonvulsant action was observed | – | – | anticonvulsant action was observed | – | 5/10/100 | – | 100 | 100 | 66.7 | 66.7 | 100 | – |
| NC(=O)C(O)c1ccccc1-c1cccc(F)c1 (single isomer, unassigned) [Example 212, 2-(3′-Fluorobiphenyl-2-yl)-2-hydroxyacetamide] | 3/3 | – | anticonvulsant action was observed | 2/3 | 2/3 | anticonvulsant action was observed | – | 1/5/100 | 3/3 | – | – | – | – | – | – |
| NC(=O)[C@H](O)c1ccccc1-c1cc(Cl)cc(Cl)c1 (single isomer, unassigned) [Example 215, 2-(3′,5′-Dichlorobiphenyl-2-yl)-2R-hydroxyacetamide] | – | – | – | – | – | – | – | 7/10/100 | – | 66.7 | 66.7 | 0 | 66.7 | 64.8 | – |
| NC(=O)Cc1ccccc1-c1cccc(Cl)c1 [Example 13, 2-(3′-chlorobiphenyl-2-yl)acetamide] | – | – | anticonvulsant action was observed | – | – | anticonvulsant action was observed | – | 2/10/100 | – | 66.7 | 100 | 100 | 66.7 | – | – |
| NC(=O)Cc1ccc(F)cc1-c1ccccc1 [Example 39, 2-(5-fluorobiphenyl-2-yl)acetamide] | – | – | – | – | – | – | – | 1/5/100 | – | 100 | 100 | 33.3 | 66.7 | – | – |
| NC(=O)Cc1ccc(F)cc1-c1ccccc1F [Example 41, 2-(2′,5-difluorobiphenyl-2-yl)acetamide] | – | – | anticonvulsant action was observed | – | – | anticonvulsant action was observed | – | 4/5/100 | – | 100 | 100 | 66.7 | 66.7 | – | – |
| NC(=O)Cc1ccccc1-c1ccccc1 [Example 50, 2-(biphenyl-2-yl)acetamide] | – | – | – | – | – | – | – | 3/5/100 | – | 66.7 | 100 | – | 33.3 | – | – |
| NC(=O)Cc1ccccc1-c1cccc(Br)c1 [Example 52, 2-(3′-bromobiphenyl-2-yl)acetamide] | – | – | – | – | – | – | – | 1/5/100 | – | 66.7 | 100 | 33.3 | 66.7 | – | – |
| NC(=O)C(O)c1ccccc1-c1ccccc1 (stereo not drawn) [Example 59, 2-(Biphenyl-2-yl)-2-hydroxyacetamide] | – | – | – | – | – | – | – | 7/10/100 | – | 100 | 100 | 0 | 66.7 | 91.5 | – |
| NC(=O)C(O)c1ccccc1-c1ccccc1F (stereo not drawn) [Example 60, 2-(2′-Fluorobiphenyl-2-yl)-2-hydroxyacetamide] | – | – | – | – | – | – | – | 1/5/100 | – | 100 | 100 | 33.3 | 66.7 | – | – |
| NC(=O)Cc1ccccc1-c1cc(Cl)cc(Cl)c1Cl [Example 64, 2-(2′,3′,5′-Trichlorobiphenyl-2-yl)acetamide] | – | – | – | – | – | – | – | 3/5/100 | – | 100 | 100 | 0 | 100 | – | – |
| NC(=O)Cc1ccccc1-c1ccc(Cl)cc1Cl [Example 78, 2-(2′,4′-dichlorobiphenyl-2-yl)acetamide] | – | – | – | – | – | – | – | 3/5/100 | – | 100 | 100 | 0 | 66.7 | – | – |
| NC(=O)Cc1ccccc1-c1cc(F)cc(Cl)c1 [Example 80, 2-(3′-chloro-5′-fluorobiphenyl-2-yl)acetamide] | – | – | anticonvulsant action was observed | – | – | anticonvulsant action was observed | – | 4/5/100 | – | 100 | 100 | 66.7 | 100 | – | – |
| NC(=O)Cc1ccccc1-c1cccc(F)c1Cl [Example 86, 2-(2′-chloro-3′-fluorobiphenyl-2-yl)acetamide] | – | – | – | – | – | – | – | 2/5/100 | – | 100 | 66.7 | 33.3 | 66.7 | – | – |
| NC(=O)Cc1ccccc1-c1cc(F)ccc1Cl [Example 88, 2-(2′-chloro-5′-fluorobiphenyl-2-yl)acetamide] | – | – | anticonvulsant action was observed | – | – | anticonvulsant action was observed | – | 3/5/100 | – | 66.7 | 100 | 66.7 | 100 | – | – |
| NC(=O)Cc1ccccc1-c1cc(Cl)ccc1C(F)(F)F [Example 91, 2-[5′-chloro-2′-(trifluoromethyl)biphenyl-2-yl]acetamide] | – | – | anticonvulsant action was observed | – | – | anticonvulsant action was observed | – | 5/5/100 | – | 100 | 100 | 66.7 | 66.7 | – | potent efficacy |
| NC(=O)Cc1ccccc1-c1cc(OC(F)(F)F)ccc1F [Example 93, 2-[2′-fluoro-5′-(trifluoromethoxy)biphenyl-2-yl]acetamide] | – | – | – | – | – | – | – | 2/5/100 | – | 100 | 100 | 33.3 | 100 | – | – |
